Measurements: PMC2613833 (Bioorganic & medicinal chemistry, 2008)
Structures can show the parent of a compound that is named as a salt. Where two headings read alike, the source gives them in different places.

Legend:
[1] = biological target: T1, estrogen receptor α (ERα) (Homo sapiens, UniProt P03372); test: Luciferase reporter gene assay; format: cell-based; details: for IC50: HEC-1 cells, full-length ERα, 1 nM estradiol, 24 h
T1 sequence (P03372 1-595): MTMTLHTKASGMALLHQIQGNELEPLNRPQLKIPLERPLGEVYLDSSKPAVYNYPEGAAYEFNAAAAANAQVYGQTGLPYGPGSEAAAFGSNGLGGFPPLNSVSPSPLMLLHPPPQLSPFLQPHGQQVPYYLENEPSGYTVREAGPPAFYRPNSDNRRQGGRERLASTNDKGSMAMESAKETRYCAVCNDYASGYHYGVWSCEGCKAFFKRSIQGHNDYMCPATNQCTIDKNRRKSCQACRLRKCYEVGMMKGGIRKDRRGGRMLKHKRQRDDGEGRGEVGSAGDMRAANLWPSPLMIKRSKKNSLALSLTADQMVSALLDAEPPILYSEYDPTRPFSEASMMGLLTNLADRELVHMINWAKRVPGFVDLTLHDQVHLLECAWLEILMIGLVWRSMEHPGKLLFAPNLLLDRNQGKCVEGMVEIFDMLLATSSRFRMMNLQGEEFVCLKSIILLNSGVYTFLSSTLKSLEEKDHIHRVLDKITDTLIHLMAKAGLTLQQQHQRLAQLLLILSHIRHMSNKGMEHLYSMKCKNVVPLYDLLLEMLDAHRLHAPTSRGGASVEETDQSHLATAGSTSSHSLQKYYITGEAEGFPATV

[2] = biological target: T2, recombinant estrogen receptor ligand binding domain / fluorescein-labeled SRC peptide (Homo sapiens, UniProt P03372); test: Fluorescence polarization assay of ER/coactivator interaction; details: 1 μM estradiol, Figure 1
T2 sequence (P03372 311-547 limits assumed): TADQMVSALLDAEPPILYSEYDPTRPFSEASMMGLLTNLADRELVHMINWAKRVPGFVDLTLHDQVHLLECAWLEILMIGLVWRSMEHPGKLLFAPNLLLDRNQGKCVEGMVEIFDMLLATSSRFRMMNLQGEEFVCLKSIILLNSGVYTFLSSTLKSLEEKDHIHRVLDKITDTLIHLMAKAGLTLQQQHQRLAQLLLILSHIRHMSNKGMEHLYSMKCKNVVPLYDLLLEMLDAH

[3] = biological target: T3, Gal4-SRC-1NRD / ERαDEF-VP16 (Homo sapiens, UniProt P03372); test: Mammalian two hybrid; format: cell-based; details: read-out: IC50, CBI inhibition in the M2H assay; HEC-1 cells, 1 nM estradiol, 24 h
T3 sequence (P03372 264-595 limits assumed): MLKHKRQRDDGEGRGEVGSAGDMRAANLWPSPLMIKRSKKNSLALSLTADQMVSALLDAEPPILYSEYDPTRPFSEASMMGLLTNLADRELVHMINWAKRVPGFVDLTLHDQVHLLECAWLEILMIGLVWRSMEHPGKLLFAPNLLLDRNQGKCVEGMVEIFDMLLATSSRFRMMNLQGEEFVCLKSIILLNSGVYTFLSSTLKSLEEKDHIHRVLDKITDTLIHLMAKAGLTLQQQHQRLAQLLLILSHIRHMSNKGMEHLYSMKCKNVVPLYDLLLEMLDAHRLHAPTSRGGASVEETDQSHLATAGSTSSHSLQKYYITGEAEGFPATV

[4] = system: ER; details: read-out: IC50, CBI activity against ER; mammalian two-hybrid (M2H) assay; cited from earlier work
[5] = biological target: T4, ERα (Homo sapiens, UniProt P03372); test: Covalent attachment test, ESI mass spectrometry of ER after incubation; details: 30 min at 4 °C in phosphate-buffered saline, dialysis overnight, low-res ESI
T4 sequence (P03372 1-595): T1 sequence (P03372 1-595)

[6] = system: ER transactivation in human breast cancer MCF-7 cells; details: cited from earlier work
[7] = IC50, CBI inhibition of reporter gene activity
[8] = read-out: IC50, CBI inhibition of reporter gene activity

Row | Compound | IC50 [1, 7] | further results
1 | N=C(N)N/N=C/C1=C(C(F)(F)F)c2ccccc2CC1 [compound 27, 1-(1,1,1,-Trifluoromethyl)-3,4-dihydronaphthalene-2-carboxaldehyde aminoguanylhydrazone HCl] | 12 µM | –
2 | COC1=C(/C=N/NC(=N)N)CCc2ccccc21 [compound 25, 1-Methoxy-3,4-dihydronaphthalene-2-carboxaldehyde aminoguanylhydrazone HCl] | 3.1 ± 0.8 µM | –
3 | CC1CC(/C=N/NC(=N)N)=C(Cl)c2ccccc21 (centres unmarked) [compound 21, 1-Chloro-3-dihydro-4-methylnaphthalene-2-carboxaldehyde aminoguanylhydrazone HCl] | 1.5 µM | –
4 | 1-(1-Chloro-3,4-dihydro-naphthalen-2-yl)-ethanone aminoguanylhydrazone HCl [compound 33] | – | IC50 [1, 8]: ≥ 50 µM
5 | N=C(N)N/N=C/C1=C(Br)c2ccccc2CC1 [compound 24, 1-Bromo-3,4-dihydronaphthalene-2-carboxaldehyde aminoguanylhydrazone HCl] | 7.8 ± 0.1 µM | –
6 | hydroxytamoxifen [reference compound] | – | increase in IC50 with a 100-fold higher estradiol concentration ([1]; reporter gene assay, 1 nM vs 100 nM estradiol, Figure 4b): 100 fold
7 | Cc1cc(C)c2c(c1)C(Cl)=C(/C=N/NC(=N)N)CC2 [compound 20, 1-Chloro-5,7-dimethyl-3,4-dihydronaphthalene-2-carboxaldehyde aminoguanylhydrazone HCl] | 1.2 ± 0.1 µM | –
8 | N=C(N)N/N=C/c1cccc2ccccc12 [compound 31, 2-(1-Naphthalenylmethylene) hydrazinecarboximidamide HCl] | 7.5 µM | –
9 | CC(/C=N/NC(=N)N)=C(/Cl)c1ccccc1 [compound 29, β-Chloro-α-methylcinnamaldehyde aminoguanylhydrazone HCl] | 1.4 ± 0.4 µM | inhibition of ER/coactivator interaction [2]: Dose-dependent inhibition
10 | N=C(N)N/N=C/C1=C(Cl)c2ccccc2CCC1 [compound 23, 9-Chloro-6,7-dihydro-5-benzocycloheptene-8-carboxaldehyde aminoguanylhydrazone HCl] | 3.3 ± 0.8 µM | inhibition of ER/coactivator interaction [2]: Dose-dependent inhibition
11 | N=C(N)N/N=C/c1ccc2ccccc2c1 [compound 32, 2-(2-Naphthalenylmethylene)hydrazinecarboximidamide HCl] | 7.5 ± 0.5 µM | –
12 | N=C(N)N/N=C/C1=C(Oc2ccccc2)c2ccccc2CC1 [compound 26, 1-Phenoxy-3,4-dihydronaphthalene-2-carboxaldehyde aminoguanylhydrazone HCl] | 3.5 ± 1.1 µM | –
13 | 3-Chloro-3-naphthalen-1-yl-propenal aminoguanylhydrazone HCl [compound 30] | – | IC50 [1, 8]: ≥ 50 µM; IC50 [3]: ≥ 50 µM
14 | N=C(N)N/N=C/C1=C(Cl)c2ccccc2CC1 [compound 1, 1-Chloro-3,4-dihydronaphthalene-2-carboxaldehyde aminoguanylhydrazone HCl] | – | IC50 [4]: 5.5 µM; change in molecular weight of ER (covalent attachment) [5]: no change in molecular weight was observed; inhibition of ER/coactivator interaction [2]: Dose-dependent inhibition; ER transactivation [6]: inhibited ER transactivation
